Experimental data as given in BindingDB's records for doi:10.1021/jm0503087 (Conforma Therapeutics, 2006).
pEC50: −log10 of the molar value.

Each compound was assayed against Heat shock protein HSP 90-beta (Homo sapiens, UniProt P08238) (assay: Her-2 Degradation Assay). Details: pH 7.2; 37 °C.
Heat shock protein HSP 90-beta, sequence (P08238 whole entry): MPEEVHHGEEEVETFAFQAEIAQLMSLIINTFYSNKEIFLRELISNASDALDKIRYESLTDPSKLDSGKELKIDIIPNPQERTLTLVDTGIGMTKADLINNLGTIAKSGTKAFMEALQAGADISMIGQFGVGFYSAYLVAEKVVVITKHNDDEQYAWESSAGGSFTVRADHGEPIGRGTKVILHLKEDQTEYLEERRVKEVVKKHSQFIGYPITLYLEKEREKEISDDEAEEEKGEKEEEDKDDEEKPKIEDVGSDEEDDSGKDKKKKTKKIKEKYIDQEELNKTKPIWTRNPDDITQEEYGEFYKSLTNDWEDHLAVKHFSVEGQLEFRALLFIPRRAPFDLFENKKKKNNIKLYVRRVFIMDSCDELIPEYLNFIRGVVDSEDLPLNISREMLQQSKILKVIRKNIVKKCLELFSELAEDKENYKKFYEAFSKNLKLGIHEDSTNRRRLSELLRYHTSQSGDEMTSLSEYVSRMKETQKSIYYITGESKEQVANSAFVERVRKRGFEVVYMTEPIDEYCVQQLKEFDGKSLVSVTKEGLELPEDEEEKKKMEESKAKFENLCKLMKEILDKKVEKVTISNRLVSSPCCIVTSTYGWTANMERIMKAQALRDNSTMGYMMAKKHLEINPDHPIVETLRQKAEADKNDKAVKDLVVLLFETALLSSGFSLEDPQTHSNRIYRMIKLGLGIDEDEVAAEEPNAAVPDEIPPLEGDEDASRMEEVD
Protocol: A fluorescence histogram was generated, and the mean fluorescence intensity (MFI) of each sample was determined using Cellquest software.
Compound COc1ccc(I)c(Sc2nc3c(N)ncnc3n2CCCNC(C)(C)C)c1 has a pEC50 of 6.85.
Work on C#CCCCn1c(Sc2cc(OC)ccc2I)nc2c(N)nc(F)nc21 [2-fluoro-8-[(2-iodo-5-methoxyphenyl)sulfanyl]-9-(pent-4-yn-1-yl)-9H-purin-6-amine] yielded a pEC50 of 6.44.
With CCCCn1c(Cc2cc(OC)ccc2Br)nc2c(N)ncnc21 [8-[(2-bromo-5-methoxyphenyl)methyl]-9-butyl-9H-purin-6-amine] the pEC50 was 5.10.
In the case of COc1ccc(I)c(Sc2nc3c(N)ncnc3n2CCC=C(C)C)c1 [8-[(2-iodo-5-methoxyphenyl)sulfanyl]-9-(4-methylpent-3-en-1-yl)-9H-purin-6-amine], the pEC50 was 6.43.
With CCC(CC)NCCCn1c(Sc2cc(OC)ccc2I)nc2c(N)ncnc21 [8-[(2-iodo-5-methoxyphenyl)sulfanyl]-9-[3-(pentan-3-ylamino)propyl]-9H-purin-6-amine] the pEC50 was 6.68.
In the case of COc1ccc(I)c(Sc2nc3c(N)ncnc3n2CCCNC(C)C)c1 [8-[(2-iodo-5-methoxyphenyl)sulfanyl]-9-[3-(propan-2-ylamino)propyl]-9H-purin-6-amine], the pEC50 was 6.74.
With COc1ccc(I)c(Sc2nc3c(N)ncnc3n2CCNCC(C)C)c1 [8-[(2-iodo-5-methoxyphenyl)sulfanyl]-9-{2-[(2-methylpropyl)amino]ethyl}-9H-purin-6-amine] the pEC50 was 7.00.
Compound CCC(C)NCCCn1c(Sc2cc(OC)ccc2I)nc2c(N)ncnc21 (configuration not stated) [9-[3-(butan-2-ylamino)propyl]-8-[(2-iodo-5-methoxyphenyl)sulfanyl]-9H-purin-6-amine] has a pEC50 of 6.68.
Compound CCCCn1c(Sc2cc(OC)ccc2OC)nc2c(N)ncnc21 [9-butyl-8-[(2,5-dimethoxyphenyl)sulfanyl]-9H-purin-6-amine] has a pEC50 of 5.46.
CCCCn1c(Cc2cc(OC)ccc2Cl)nc2c(N)ncnc21 [9-butyl-8-[(2-chloro-5-methoxyphenyl)methyl]-9H-purin-6-amine] showed a pEC50 of 4.70.
Work on CCCCn1c(Cc2cc(OC)ccc2I)nc2c(N)ncnc21 [9-butyl-8-[(2-iodo-5-methoxyphenyl)methyl]-9H-purin-6-amine] yielded a pEC50 of 5.30.
Work on CCCCn1c(Cc2cc(OC)ccc2OC)nc2c(N)ncnc21 [PU7] yielded a pEC50 of 4.92.
